Measured values taken from patent US20130156845A1, “LIPID FORMULATED SINGLE STRANDED RNA” (ALNYLAM PHARMACEUTICALS, INC., priority 2010, published 2013).
e = 2'-O-(2-methoxyethyl) (MOE); {P} = phosphate; f = 2'-fluoro

Columns and labels:
PTEN [1] = test: PTEN mRNA reduction in HeLa cells, dose response (Example 64); format: cell-based, human; details: real-time PCR, 1.56-50 nM
Description: A dose response experiment was performed targeting PTEN in human HeLa cells to determine the effects of placement of sugar and internucleoside linkages within ssRNAs. More specifically, the modified ssRNAs were tested for their ability to reduce PTEN mRNA in cultured cells. The modified ssRNAs are shown below, and contain 2′-OMe and 2′-fluoro modified nucleosides, two 2′-O-MOE modified nucleosides at the 3′-terminus, and seven phosphorothioate linkages at the 3′-terminus of the ssRNAs.
HeLa cells were treated with ssRNAs shown below at concentrations of 1.56 nM, 3.13 nM, 6.25 nM, 12.5 nM, […] and 50 nM using methods described herein. Levels of mRNA were determined using real-time PCR methods as described herein. The IC50 for each ssRNA was determined.

PTEN [2] = test: PTEN mRNA reduction in HeLa cells, dose response (Example 59); format: cell-based, human; details: percent inhibition of PTEN mRNA, real-time PCR normalized to RIBOGREEN, 0.20-50 nM
Description: When cells reached 65-75% confluency, they are treated with one or more oligomeric compounds. The oligomeric compound is mixed with LIPOFECTIN™ Invitrogen Life Technologies, Carlsbad, Calif.) in Opti-MEM™-1 reduced serum medium (Invitrogen Life Technologies, Carlsbad, Calif.) to achieve the desired concentration of the oligomeric compound(s) and a LIPOFECTIN™ concentration of 2.5 or 3 μg/mL per 100 nM oligomeric compound(s). This transfection mixture is incubated at room temperature for approximately 0.5 hours. For cells grown in 96-well plates, wells are washed once with 100 μL OPTI-MEM™-1 and then treated with 130 μL of the transfection mixture. Cells grown in 24-well plates or other standard tissue culture plates are treated similarly, using appropriate volumes of medium and oligomeric compound(s). […]
Quantitation of target mRNA levels is accomplished by real-time quantitative PCR using the ABI PRISM™ 7600, 7700, or 7900 Sequence Detection System (PE-Applied Biosystems, Foster City, Calif.) according to manufacturer's instructions. This is a closed-tube, non-gel-based, fluorescence detection system which allows high-throughput quantitation of polymerase chain reaction (PCR) products in real-time. As opposed to standard PCR in which amplification products are quantitated after the PCR is completed, products in real-time quantitative PCR are quantitated as they accumulate. […]

[3] = Phosphate stability in mouse serum (Example 68)
Description: Single-stranded oligomeric compounds were tested for stability in mouse serum.

PTEN [4] = test: PTEN mRNA reduction in HeLa cells, dose response (Example 72); format: cell-based, human; details: percent inhibition of PTEN mRNA, 0.167-50 nM
Description: In accordance with the present disclosure, oligomeric compounds were synthesized and tested for their ability to reduce PTEN expression over a range of doses. Human HeLa cells were treated with the following oligomeric compounds. A dose comparison was evaluated with dose concentrations of 0.167, 0.5, 1.5, 5, 15 and 50 nM using methods described herein. Expression levels of PTEN were determined using real-time PCR and normalized to RIBOGREEN™ using methods described herein. The percent inhibition of PTEN mRNA was determined and the resulting dose-response curves were used to determine the IC50. The IC50s are listed below.

[5] = Modified ssRNA 5′-phosphate serum stability assay (Example 60); format: in vitro ADME; details: full length ssRNA with 5′-terminal phosphate; 10 μM in 95% fresh mouse serum, 37° C., LC/MS
Description: A serum stability assay is useful for evaluating the stability of oligomeric compounds in the presences of nucleases and other enzymes found in serum. For example, the stability of a 5′-terminal phosphate group of an oligomeric compound can be evaluated by assessing the ability of the 5′-terminal phosphate group to remain attached to the oligomeric compound in the presence of serum. Accordingly, a serum stability assay was employed to evaluate the stability of modified ssRNAs having a 5′-terminal phosphate group.
Various modified ssRNAs, shown below, having a 5′-terminal phosphate group (10 μM) were dissolved in 95% of fresh mouse serum and incubated at 37° C. Aliquots of serum (100 μL) were removed after 0, 1, 3, 6 or 24 hours of incubation times. The serum samples were immediately quenched and snap frozen. The samples were extracted by the strong anion exchange (SAX) and octadecylsilyl (C-18) columns. For each incubation time, the amount of full length modified ssRNA having a 5′-terminal phosphate group was determined by LC/MS, and the half-life of the full length modified ssRNA having a 5′ terminal phosphate group was calculated. The results are expressed as half-time (T1/2) in the table below.

P-UfUfGfUfCfUfCfUfGfGfUfCfCfUfUfAfCfUfUfAeAe (antisense UUGUCUCUGGUCCUUACUUAA; sugars from the 5' end f19 e2, 5' {P}, backbone not given here) [ISIS 404320, modified ssRNA targeting PTEN]
IC50 (PTEN [1]): 5.8 nM
EC50 (PTEN [2]): 13.2 nM
T1/2 full length ([3]; four compounds tested separately, second table): 24 min
T1/2 full length ([3]; full compound with intact phosphorous moiety, first table): 24 min
IC50 (PTEN [4]): 7.6 nM
T1/2 [5]: 240 min
